Reference: patent US8501183B2, “Immunogenic compositions and diagnostic and therapeutic uses thereof” (The Walter and Eliza Hall Institute of Medical Research, priority 2002, dated 2013)

Legend:
[1] = test system: anti-Glycan antibodies in human serum; assay: ELISA of human serum against synthetic glycan antigen; type: binding; conditions: serum of a malaria-exposed Papua New Guinean donor; BSA-conjugated glycan
[2] = test system: human antibody responses to the native GPI toxin; assay: Competition ELISA, synthetic glycan vs GPI; type: binding; conditions: competitor in molar excess
[3] = IgG response of mice immunized with synthetic GPI glycan conjugate; type: in vivo; conditions: rodents
Experimental: All experiments were in accordance with local Animal Ethics Committee regulations. Young adult C57BL6 mice from Jackson Laboratories were pre-bled and inoculated with 6.5 μg KLH-glycan (0.176 μg glycan, n=16) or KLH-cysteine (sham-immunized, n=24) emulsified in Freund's Complete Adjuvant, and boosted with equal amounts of immunogen in Incomplete Freund's Adjuvant at 2 weekly intervals. After two boosts they were rested and injected i.p with 1×10^6 P. berghei ANKA-infected erythrocytes. Naïve mice (n=12) served as unimmunized controls. Parasitemias were assessed from Giemsa-stained thin films. Mortality was checked twice daily. Mice were judged as developing cerebral malaria if displaying neurological signs such as loss of reflex or ataxia, and dying between days 5 to 12 post-infection with relatively low parasitemia levels (below 15%). Differences in survival curves of P. berghei infected mice across this time-period were assessed by Cox-Mantel logrank transformation on Kaplan-Meier plots. Deaths from day 14 onwards with high parasitaemia (>60%) and low rates of cerebral vascular occlusion were ascribed to hyperparasitaema/haemolysis, and all animals failing to develop cerebral malaria eventually succumbed to this syndrome.
The synthetic malarial GPI glycan was immunogenic in rodents. […] No reactivity to GPI glycan was detected in pre-immune sera or in animals receiving sham-conjugated KLH. […]

[4] = ELISA titres of anti-GPI antibodies in sera of immunized mice; type: in vivo; conditions: mice immunized with free GPI in IFA
Experimental: Antigen (GPI-OVA, Glycan-OVA, BSA-PI, OVA or BSA alone) at 20 μg/ml in phosphate binding buffer was incubated overnight in 50 μl volumes in flat-bottomed Immunlon 96-well plates, followed by extensive washing with buffer. The plates were blocked with 1% BSA, 1% OVA in PBS for several hours. From a 1/32 dilution, sera were titrated two-fold in 1% BSA, 1% OVA in PBS, and 50 μl aliquots incubated in triplicate for 2 hours at room temperature, followed by extensive washing with 1% BSA, 1% OVA 0.05% Tween-20 in PBS. An aliquot of affinity purified, biotin-labelled isotype specific goat anti-mouse second antibody was incubated as above, followed by further washing and the addition of streptavidin-alkaline phosphatase. After 30 minutes the plates were washed again and colourimetric development initiated by the addition of p-Nitrophenylphosphate in diethanolamine buffer. Background binding to BSA/OVA-coated plates was determined in parallel. […]
Mice were immunized by three successive boosts of free intact malarial GPI emulsified in Incomplete Freund's Adjuvant spaced two weeks apart. […] After immunization, sera were bled and the titres of anti-GPI antibodies determined by ELISA. […] Parasitaemia, the development of neurological complications, and mortality were recorded daily. […]

[5] = type: in vivo, C3H/HeJ and C57B16 mice; conditions: primed with 20 mg D-galactosamine, agent after 1 hour
Experimental: In addition a standard murine model of TNF-driven lethality was used to determine whether GPI mediates parasite-induced acute toxic shock. This model manifests disseminated intravascular coagulation, peripheral vascular failure and shock, and thus has clinical features in common with the human “algid malaria” syndrome. LPS-non-responsive C3H/HeJ and C57B16 mice were primed with 20 mg D-galactosamine followed after 1 hour by purified GPI, PE or PBS alone.

P. berghei ANKA = P. berghei ANKA cerebral malaria challenge of immunized mice; type: in vivo, C57Bl/6 mice
Excerpt: Mice were immunized by three successive boosts of free intact malarial GPI emulsified in Incomplete Freund's Adjuvant spaced two weeks apart. Control mice received an equal amount of IFA alone. After immunization, sera were bled and the titres of anti-GPI antibodies determined by ELISA. All animals immunized with GPI developed broadly similar levels of anti-GPI antibodies (range 1/1024-1/4096) among individual animals. […] Two weeks after the final boost mice were challenged with P. berghei ANKA. Parasitaemia, the development of neurological complications, and mortality were recorded daily. No difference in parasitaemia was observed. In the control group, 100% of animal manifested between day 5 and 9 an aggressive cerebral syndrome with neurological signs proceeding to rapid death with 12 hours. […]
The P. berghei ANKA murine cerebral malaria model has many features in common with the human cerebral malaria syndrome. […] Parasitaemia, the development of neurological complications, and mortality were recorded daily. […]

[6] = Competition / PI-specific ELISA, epitope mapping of anti-GPI antibodies; type: binding; conditions: sera of mice immunized with free GPI
Experimental: Coupling of the purified GPI glycan to proteins was undertaken as above. To measure anti-lipid reactivities, we utilized commercially available phosphatidylinositol from Sigma with identical composition to the malarial GPI, namely dipalmitoyl-PI. 2 mg PI was coupled to defatted BSA according to published protocols (Bate, C. A. W., Taverne, J., Kwiatkowski, D., and Playfair, J. H. L. (1993) Immunology 79:138-145).
From a 1/32 dilution, sera or mAbs were titrated two-fold in 1% BSA in PBS, 0.05% Tween-20, and pre-incubated for 4 hours at room temperature with a molar excess of competitior (20 μg/ml PI, or phosphatidylserine (PS), or diluent alone). Antigen (BSA-PI or BSA alone) at 20 μg/ml in phosphate binding buffer was incubated overnight in 50 μl volumes in flat-bottomed Immunlon 96-well plates, followed by extensive washing with buffer. The plates were blocked with 1% BSA in PBS for several hours. 50 μl aliquots of titrated antibody with or without competitor were incubated in triplicate for 2 hours at room temperature, followed by extensive washing with 1% BSA 0.05% Tween-20 in PBS. An aliquot of affinity purified, biotin-labelled isotype specific goat anti-mouse second antibody was incubated as above, followed by further washing and the addition of streptavidin-alkaline phosphatase. […] Background binding to BSA-coated plates was determined in parallel. […]

Substance: NH2—CH2—CH2—PO4-(Manα1-2)6Manα1-2Manα1-6Manα1-4GlcNH2α1-6myo-Insositol-1,2 cyclic phosphate [synthetic GPI glycan]
- detection of antibodies in human serum [1]: able specifically to detect anti-Glycan antibodies in human serum
- competition of human antibody responses to native GPI [2]: compete out the majority of human antibody responses to the native GPI toxin
- immunogenicity [3]: immunogenic

Substance: NH—CH2—CH2—PO4-(Manα1-2)-6Manα1-2Manα1-6Manα1-4GlcN-H2α1-6(myristoyl)-myo-Inositol-1-PO4-dipalmitoylglycerol [free GPI]
- isotype of the anti-GPI response [4]: predominantly IgM
- recipients with lethal shock [5]: 100%
- parasitaemia (P. berghei ANKA; after P. berghei ANKA challenge two weeks after final boost, vs control groups): No difference
- rate of deaths (P. berghei ANKA; free GPI in IFA vs IFA alone, P. berghei ANKA challenge): noticeable faster rate
- epitope specificity of the antibody response [6]: directed predominantly towards the lipidic (phosphatidylinositol, PI) domain of the molecule
